“Also recorded” adds a separate entry of the source.
System: CD39^+/+ and CD39^−/− mice exposed to hypoxia
Assay: Ectonucleotidase reconstitution and P2X1 receptor blocking in murine chronic hypoxia model of pulmonary hypertension
Format: in vivo, mouse
Conditions: for development of pulmonary hypertension (PH): continuous infusion during four weeks of hypoxia, CD39^+/+ and CD39^−/− mice; for pulmonary arterial pressures: continuous administration
Description: Seven-week-old CD39^+/+ and CD39^−/− mice were maintained at 10% oxygen (normobaric) for four weeks using a purpose-built, normobaric hypoxia chamber with automated oxygen-regulating capability. Circulating air was scavenged using charcoal and soda lime (Sigma-Aldrich, St. Louis, MO). Temperature and humidity were monitored, and the latter maintained within normal limits using Dririte (Sigma-Aldrich, St. Louis, MO). Normoxic control mice were maintained in the same room at 21% oxygen, which was verified by a continuous oxygen sensor (BioSpherix, Lacona, NY). All animals were given free access to food and water, and were maintained on a 12-hour dark/light cycle.
Mice were anesthetized using 2% isoflurane. A tracheostomy was performed, and animals were ventilated using 21% or 10% oxygen administered thorough the ventilator circuit. Optimal ventilator settings were confirmed using arterial blood gas measurements. After a median sternotomy was performed, hemodynamic measurements were made using a 1.2F solid state pressure catheter (Scisense Transonic, London, ON) inserted through the right ventricular (RV) free wall into the RV cavity and advanced into the pulmonary artery (PA). Placement was verified using the pressure waveform. Data including the right ventricular systolic pressure (RVSP) and mean PA (mPA) pressures were collected and analyzed using LabScribe2 (iWorx, Dover, NH). Continuous EKG monitoring was performed using the MouseMonitor (Indus Instruments, Webster, TX).
Alzet osmotic pumps (DURECT, Cupertino, CA) were used to deliver either 15 units of
apyrase (A6410, Sigma-Aldrich, St. Louis, MO), 25 mM of NF279 (Tocris Bioscience/Bio-Techne, Minneapolis, MN) or sterile 0.9% sodium chloride over a four-week period at a rate of 0.11 μl/hr.
Based upon findings of increased intravascular ATP and ADP, significant up-regulation of the P2X1 receptor, and severe pulmonary hypertension in hypoxic CD39-mice, two sets of rescue experiments were designed aimed at reversing the PH phenotype. The first rescue experiment involved the reconstitution of intravascular ectonucleotidase activity. Soluble potato tuber apyrase has known ATPase and ADPase activity, and has been used in prior studies involving CD39^−/− mice (ref. 24, 44; incorporated by reference in their entireties). Sequence homology of this apyrase is similar to human and murine CD39 (ref. 19; incorporated by reference in its entirety). […] The second rescue experiment involved the continuous infusion of NF279 (8,8′-[Carbonylbis (imino-4,1-phenylenecarbonylimino-4,1-phenylenecarbonylimino)]bis-1,3,5-naphthalenetrisulfonic acid hexasodium salt):
a sensitive and specific P2X1 antagonist, during four weeks of hypoxia. […] Pulmonary Vessels from Patients with IPAH have Increased P2X1 Receptors

Compound | development of pulmonary hypertension (PH) (FIG. 5c) | pulmonary arterial pressures (hypoxic CD39^−/− mice) | right ventricular systolic pressure (RVSP) (continuous subcutaneous administration during four weeks of hypoxia (10% oxygen), compared to control mice that received continuous saline infusions, FIG. 5c) | RVSP relative to levels found in normoxic CD39^+/+ mice (hypoxic CD39^−/− mice, four weeks of continuous administration, FIG. 5c)
O=C(Nc1ccc(C(=O)Nc2ccc(C(=O)Nc3ccc(S(=O)(=O)[O-])c4cc(S(=O)(=O)[O-])cc(S(=O)(=O)[O-])c34)cc2)cc1)Nc1ccc(C(=O)Nc2ccc(C(=O)Nc3ccc(S(=O)(=O)[O-])c4cc(S(=O)(=O)[O-])cc(S(=O)(=O)[O-])c34)cc2)cc1.[Na+].[Na+].[Na+].[Na+].[Na+].[Na+] [NF279, 8,8′-[Carbonylbis (imino-4,1-phenylenecarbonylimino-4,1-phenylenecarbonylimino)]bis-1,3,5-naphthalenetrisulfonic acid hexasodium salt, reference compound] | prevented the development of PH in all groups; also recorded: protected both CD39^+/+ and CD39-4-mice from the development of hypoxic pulmonary hypertension | lowered pulmonary arterial pressures even further |  | 
apyrase | provided partial protection against the development of pulmonary hypertension | decreased pulmonary arterial pressures in hypoxic CD39-mice to levels found in hypoxic CD39^+/+ controls | significantly decreased the RVSP | did not decrease the RVSP in hypoxic CD39^−/− mice to levels found in normoxic CD39^+/+ mice
